Source: ChEMBL document CHEMBL5335767, “Synthesis and study of new siderophore analog-ciprofloxacin conjugates with antibiotic activities against Pseudomonas aeruginosa and Burkholderia spp” (Eur J Med Chem, 2023)
Values after ≈ are worked out from the molar mass of the structure shown.

What was measured:
[1] = system: Burkholderia thailandensis; test: Antibacterial activity against Burkholderia thailandensis E264TS32C12 under 1 uM FeCl3 medium by CLSI protocol based microdilution method; assay type: functional
[2] = system: Burkholderia pseudomallei; test: Antibacterial activity against Burkholderia pseudomallei BPS2020IRBA001 under 1 uM FeCl3 medium by CLSI protocol based microdilution method; assay type: functional
[3] = system: Burkholderia pseudomallei; test: Antibacterial activity against Burkholderia pseudomallei BPS2020IRBA002 under muller hinton medium by CLSI protocol based microdilution method; assay type: functional
[4] = Antibacterial activity against Burkholderia pseudomallei BPS2020IRBA005 under 1 uM FeCl3 medium by CLSI protocol based microdilution method; assay type: functional; conditions: Burkholderia thailandensis
[5] = system: Burkholderia pseudomallei; test: Antibacterial activity against Burkholderia pseudomallei BPS2020IRBA005 under muller hinton medium by CLSI protocol based microdilution method; assay type: functional
Pseudomonas aeruginosa [6] = test: Antibacterial activity against Pseudomonas aeruginosa PAO1 under 1 uM FeCl3 medium by CLSI protocol based microdilution method; assay type: functional
[7] = system: Burkholderia pseudomallei; test: Antibacterial activity against Burkholderia pseudomallei K96243 under muller hinton medium by CLSI protocol based microdilution method; assay type: functional
[8] = system: Burkholderia thailandensis; test: Antibacterial activity against Burkholderia thailandensis E264TS32C10 under 1 uM FeCl3 medium by CLSI protocol based microdilution method; assay type: functional
Pseudomonas aeruginosa [9] = test: Antibacterial activity against Pseudomonas aeruginosa AM85 under succinate minimum medium by CLSI protocol based microdilution method; assay type: functional
[10] = system: Burkholderia pseudomallei; test: Antibacterial activity against Burkholderia pseudomallei BPS2020IRBA001 under muller hinton medium by CLSI protocol based microdilution method; assay type: functional
[11] = system: Burkholderia thailandensis; test: Antibacterial activity against Burkholderia thailandensis E264TS32C10 under succinate minimum medium by CLSI protocol based microdilution method; assay type: functional
Pseudomonas aeruginosa [12] = test: Antibacterial activity against Pseudomonas aeruginosa PAD07 under 1 uM FeCl3 medium by CLSI protocol based microdilution method; assay type: functional
[13] = system: Burkholderia pseudomallei; test: Antibacterial activity against Burkholderia pseudomallei K96243 under 1 uM FeCl3 medium by CLSI protocol based microdilution method; assay type: functional
[14] = system: Burkholderia thailandensis; test: Antibacterial activity against Burkholderia thailandensis E264TS32C47 under 1 uM FeCl3 medium by CLSI protocol based microdilution method; assay type: functional
[15] = system: Burkholderia thailandensis; test: Antibacterial activity against Burkholderia thailandensis E264 under succinate minimum medium by CLSI protocol based microdilution method; assay type: functional
[16] = system: Burkholderia thailandensis; test: Antibacterial activity against Burkholderia thailandensis E264TS32C47 under succinate minimum medium by CLSI protocol based microdilution method; assay type: functional
Pseudomonas aeruginosa [17] = test: Antibacterial activity against Pseudomonas aeruginosa PAD07 under muller hinton medium by CLSI protocol based microdilution method; assay type: functional
[18] = system: Burkholderia thailandensis; test: Antibacterial activity against Burkholderia thailandensis E264 under 1 uM FeCl3 medium by CLSI protocol based microdilution method; assay type: functional
[19] = system: Burkholderia pseudomallei; test: Antibacterial activity against Burkholderia pseudomallei BPS2020IRBA002 under succinate minimum medium by CLSI protocol based microdilution method; assay type: functional
[20] = system: Burkholderia pseudomallei; test: Antibacterial activity against Burkholderia pseudomallei BPS2020IRBA003 under succinate minimum medium by CLSI protocol based microdilution method; assay type: functional
[21] = system: Burkholderia pseudomallei; test: Antibacterial activity against Burkholderia pseudomallei BPS2020IRBA001 under succinate minimum medium by CLSI protocol based microdilution method; assay type: functional
[22] = system: Burkholderia pseudomallei; test: Antibacterial activity against Burkholderia pseudomallei BPS2020IRBA003 under 1 uM FeCl3 medium by CLSI protocol based microdilution method; assay type: functional
Pseudomonas aeruginosa [23] = test: Antibacterial activity against Pseudomonas aeruginosa PAO1 under muller hinton medium by CLSI protocol based microdilution method; assay type: functional
[24] = system: Burkholderia pseudomallei; test: Antibacterial activity against Burkholderia pseudomallei BPS2020IRBA003 under muller hinton medium by CLSI protocol based microdilution method; assay type: functional
[25] = system: Burkholderia pseudomallei; test: Antibacterial activity against Burkholderia pseudomallei BPS2020IRBA002 under 1 uM FeCl3 medium by CLSI protocol based microdilution method; assay type: functional
[26] = system: Burkholderia pseudomallei; test: Antibacterial activity against Burkholderia pseudomallei BPS2020IRBA005 under succinate minimum medium by CLSI protocol based microdilution method; assay type: functional
Pseudomonas aeruginosa [27] = test: Antibacterial activity against Pseudomonas aeruginosa PAD07 under succinate minimum medium by CLSI protocol based microdilution method; assay type: functional
[28] = system: Burkholderia thailandensis; test: Antibacterial activity against Burkholderia thailandensis E264TS32C10 under muller hinton medium by CLSI protocol based microdilution method; assay type: functional
[29] = system: Burkholderia thailandensis; test: Antibacterial activity against Burkholderia thailandensis E264 under muller hinton medium by CLSI protocol based microdilution method; assay type: functional
[30] = system: Burkholderia thailandensis; test: Antibacterial activity against Burkholderia thailandensis E264TS32C12 under succinate minimum medium by CLSI protocol based microdilution method; assay type: functional
Pseudomonas aeruginosa [31] = test: Antibacterial activity against Pseudomonas aeruginosa AM85 under 1 uM FeCl3 medium by CLSI protocol based microdilution method; assay type: functional
[32] = system: Burkholderia thailandensis; test: Antibacterial activity against Burkholderia thailandensis E264TS32C47 under muller hinton medium by CLSI protocol based microdilution method; assay type: functional
[33] = system: Burkholderia thailandensis; test: Antibacterial activity against Burkholderia thailandensis E264TS32C12 under muller hinton medium by CLSI protocol based microdilution method; assay type: functional
[34] = system: Burkholderia pseudomallei; test: Antibacterial activity against Burkholderia pseudomallei BPS2020IRBA004 under muller hinton medium by CLSI protocol based microdilution method; assay type: functional
Pseudomonas aeruginosa [35] = test: Antibacterial activity against Pseudomonas aeruginosa AM85 under muller hinton medium by CLSI protocol based microdilution method; assay type: functional
[36] = system: Burkholderia pseudomallei; test: Antibacterial activity against Burkholderia pseudomallei K96243 under succinate minimum medium by CLSI protocol based microdilution method; assay type: functional
HepG2 = test: Cytotoxicity against human HepG2 cells at 23 ug/ml after 48 hrs by CellTiter-Glo luminescent cell viability assay; assay type: toxicity, cell-based; conditions: hepg2, 48 h, dose 23 µg/ml
Pseudomonas aeruginosa [37] = test: Antibacterial activity against Pseudomonas aeruginosa PAO1 under succinate minimum medium by CLSI protocol based microdilution method; assay type: functional
[38] = system: Burkholderia pseudomallei; test: Antibacterial activity against Burkholderia pseudomallei BPS2020IRBA005 under 1 uM FeCl3 medium after 48 hrs by CLSI protocol based microdilution method; assay type: functional

Compound	MIC [1] [µg/mL]	MIC [3] [µg/mL]	MIC (Pseudomonas aeruginosa [6]) [µg/mL]	MIC [8] [µg/mL]	MIC (Pseudomonas aeruginosa [9]) [µg/mL]	MIC [10] [µg/mL]	MIC [11] [µg/mL]	MIC (Pseudomonas aeruginosa [12]) [µg/mL]	MIC [13] [µg/mL]	MIC [14] [µg/mL]	MIC [15] [µg/mL]	MIC [16] [µg/mL]	MIC (Pseudomonas aeruginosa [17]) [µg/mL]	MIC [18] [µg/mL]	MIC [19] [µg/mL]	MIC [21] [µg/mL]	MIC (Pseudomonas aeruginosa [23]) [µg/mL]	MIC [24] [µg/mL]	MIC [25] [µg/mL]	MIC [26] [µg/mL]	other results
O=C(O)c1cn(C2CC2)c2cc(N3CCN(C(=O)c4cccc(O)c4O)CC3)c(F)cc2c1=O	16 (≈ 34.2 µM)	16 (≈ 34.2 µM)	32 (≈ 68.5 µM)	32 (≈ 68.5 µM)	128 (≈ 274 µM)	32 (≈ 68.5 µM)	32 (≈ 68.5 µM)	8 (≈ 17.1 µM)	4 (≈ 8.56 µM)	8 (≈ 17.1 µM)	8 (≈ 17.1 µM)	8 (≈ 17.1 µM)	8 (≈ 17.1 µM)	8 (≈ 17.1 µM)	8 (≈ 17.1 µM)	32 (≈ 68.5 µM)	16 (≈ 34.2 µM)	16 (≈ 34.2 µM)	16 (≈ 34.2 µM)	8 (≈ 17.1 µM)	MIC [2]: 32 µg/mL (≈ 68.5 µM); MIC [4]: 8 µg/mL (≈ 17.1 µM); MIC [5]: 64 µg/mL (≈ 137 µM); MIC [7]: 8 µg/mL (≈ 17.1 µM); MIC [20]: 8 µg/mL (≈ 17.1 µM); MIC [22]: 16 µg/mL (≈ 34.2 µM); MIC (Pseudomonas aeruginosa [27]): 1 µg/mL (≈ 2.14 µM); MIC [28]: 32 µg/mL (≈ 68.5 µM); MIC [29]: 16 µg/mL (≈ 34.2 µM); MIC [30]: 16 µg/mL (≈ 34.2 µM); MIC (Pseudomonas aeruginosa [31]): > 128 µg/mL; MIC [32]: 16 µg/mL (≈ 34.2 µM); MIC [33]: 32 µg/mL (≈ 68.5 µM); MIC [34]: 32 µg/mL (≈ 68.5 µM); MIC (Pseudomonas aeruginosa [35]): > 128 µg/mL; MIC [36]: 2 µg/mL (≈ 4.28 µM); Activity (HepG2): Non-Toxic; MIC (Pseudomonas aeruginosa [37]): 32 µg/mL (≈ 68.5 µM)
CC(C)(O/N=C(\C(=O)N[C@@H]1C(=O)N2C(C(=O)[O-])=C(C[n+]3ccccc3)CS[C@H]12)c1csc(N)n1)C(=O)O [CEFTAZIDIME]	8 (≈ 14.6 µM)	128 (≈ 234 µM)	1 (≈ 1.83 µM)	2 (≈ 3.66 µM)	0.25 (≈ 0.457 µM)	2 (≈ 3.66 µM)	2 (≈ 3.66 µM)	1 (≈ 1.83 µM)	8 (≈ 14.6 µM)	4 (≈ 7.32 µM)	4 (≈ 7.32 µM)	4 (≈ 7.32 µM)	1 (≈ 1.83 µM)	4 (≈ 7.32 µM)	64 (≈ 117 µM)	2 (≈ 3.66 µM)	1 (≈ 1.83 µM)	2 (≈ 3.66 µM)	> 128	8 (≈ 14.6 µM)	MIC [38]: 8 µg/mL (≈ 14.6 µM); MIC (Pseudomonas aeruginosa [27]): 0.25 µg/mL (≈ 0.457 µM); MIC [28]: 1 µg/mL (≈ 1.83 µM); MIC [29]: 4 µg/mL (≈ 7.32 µM); MIC [30]: 8 µg/mL (≈ 14.6 µM); MIC (Pseudomonas aeruginosa [31]): 4 µg/mL (≈ 7.32 µM); MIC [32]: 4 µg/mL (≈ 7.32 µM); MIC [33]: 4 µg/mL (≈ 7.32 µM); MIC [34]: 8 µg/mL (≈ 14.6 µM); MIC (Pseudomonas aeruginosa [35]): 4 µg/mL (≈ 7.32 µM); MIC [36]: 8 µg/mL (≈ 14.6 µM); MIC (Pseudomonas aeruginosa [37]): 0.25 µg/mL (≈ 0.457 µM)
O=C(O)c1cn(C2CC2)c2cc(N3CCN(C(=O)c4cc(=O)c(O)c[nH]4)CC3)c(F)cc2c1=O	> 128	> 128	32 (≈ 68.3 µM)	> 128	> 128	> 128	> 128	16 (≈ 34.2 µM)	> 128	> 128	> 128	> 128	32 (≈ 68.3 µM)	> 128	> 128	> 128	32 (≈ 68.3 µM)	> 128	> 128	> 128	MIC [2]: > 128 µg/mL; MIC [4]: > 128 µg/mL; MIC [5]: > 128 µg/mL; MIC [7]: > 128 µg/mL; MIC [20]: > 128 µg/mL; MIC [22]: > 128 µg/mL; MIC (Pseudomonas aeruginosa [27]): 2 µg/mL (≈ 4.27 µM); MIC [28]: 32 µg/mL (≈ 68.3 µM); MIC [29]: > 128 µg/mL; MIC [30]: > 1.8 µg/mL; MIC (Pseudomonas aeruginosa [31]): > 128 µg/mL; MIC [32]: > 128 µg/mL; MIC [33]: > 128 µg/mL; MIC [34]: > 128 µg/mL; MIC (Pseudomonas aeruginosa [35]): > 128 µg/mL; MIC [36]: > 128 µg/mL; Activity (HepG2): Non-Toxic; MIC (Pseudomonas aeruginosa [37]): 32 µg/mL (≈ 68.3 µM)
O=C(O)c1cn(C2CC2)c2cc(N3CCN(C(=O)c4ccc(O)c(O)c4)CC3)c(F)cc2c1=O	> 128	> 128	8 (≈ 17.1 µM)	> 128	128 (≈ 274 µM)	> 128	> 128	8 (≈ 17.1 µM)	64 (≈ 137 µM)	> 128	64 (≈ 137 µM)	> 128	8 (≈ 17.1 µM)	128 (≈ 274 µM)	> 128	128 (≈ 274 µM)	8 (≈ 17.1 µM)	128 (≈ 274 µM)	> 128	> 128	MIC [2]: 128 µg/mL (≈ 274 µM); MIC [4]: > 128 µg/mL; MIC [5]: > 128 µg/mL; MIC [7]: 64 µg/mL (≈ 137 µM); MIC [20]: 128 µg/mL (≈ 274 µM); MIC [22]: 128 µg/mL (≈ 274 µM); MIC (Pseudomonas aeruginosa [27]): 8 µg/mL (≈ 17.1 µM); MIC [28]: > 128 µg/mL; MIC [29]: 128 µg/mL (≈ 274 µM); MIC [30]: > 128 µg/mL; MIC (Pseudomonas aeruginosa [31]): > 128 µg/mL; MIC [32]: > 128 µg/mL; MIC [33]: > 128 µg/mL; MIC [34]: 128 µg/mL (≈ 274 µM); MIC (Pseudomonas aeruginosa [35]): > 128 µg/mL; MIC [36]: 64 µg/mL (≈ 137 µM); Activity (HepG2): Non-Toxic; MIC (Pseudomonas aeruginosa [37]): 8 µg/mL (≈ 17.1 µM)
